Measured values taken from ChEMBL document CHEMBL4219126, “Synthesis and biological evaluation of benzocyclobutane-C-glycosides as potent and orally active SGLT1/SGLT2 dual inhibitors” (Bioorg Med Chem Lett, 2018).
Active and inactive are the calls of the source. The calls are words filed in the database; no cut-off is given here.

Key:
[1] = target: T1, Sodium/glucose cotransporter 1 (Homo sapiens) (UniProt P13866); experiment: Inhibition of human small intestinal SGLT1 expressed in CHOK1 cells assessed as decrease in [14C]-AMG uptake at 300 nM preincubated for 10 mins followed by [14C]-AMG addition and measured after 2 hrs by TopCount method relative to control; format: cell-based
T1 sequence (whole entry): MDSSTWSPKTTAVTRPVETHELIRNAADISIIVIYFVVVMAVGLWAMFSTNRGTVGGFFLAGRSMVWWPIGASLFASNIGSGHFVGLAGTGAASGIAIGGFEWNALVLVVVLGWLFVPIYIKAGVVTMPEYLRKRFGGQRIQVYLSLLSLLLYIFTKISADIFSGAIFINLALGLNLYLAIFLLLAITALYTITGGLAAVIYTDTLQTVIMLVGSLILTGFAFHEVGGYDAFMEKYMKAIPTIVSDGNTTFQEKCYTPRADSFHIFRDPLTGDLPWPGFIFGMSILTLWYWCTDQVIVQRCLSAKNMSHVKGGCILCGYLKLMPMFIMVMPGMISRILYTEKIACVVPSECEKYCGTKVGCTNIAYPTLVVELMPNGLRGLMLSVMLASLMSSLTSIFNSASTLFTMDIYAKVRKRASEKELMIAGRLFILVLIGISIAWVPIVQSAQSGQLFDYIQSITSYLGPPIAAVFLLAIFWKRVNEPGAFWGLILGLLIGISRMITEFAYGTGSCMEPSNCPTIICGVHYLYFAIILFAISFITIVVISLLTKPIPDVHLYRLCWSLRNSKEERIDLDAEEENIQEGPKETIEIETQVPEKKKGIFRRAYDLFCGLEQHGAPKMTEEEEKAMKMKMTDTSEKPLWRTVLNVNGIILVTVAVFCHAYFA

[2] = target: T2, Sodium/glucose cotransporter 2 (Homo sapiens) (UniProt P31639); experiment: Inhibition of human kidney SGLT2 expressed in CHOK1 cells assessed as decrease in [14C]-AMG uptake at 30 nM preincubated for 10 mins followed by [14C]-AMG addition and measured after 2 hrs by TopCount method relative to control; format: cell-based
T2 sequence (whole entry): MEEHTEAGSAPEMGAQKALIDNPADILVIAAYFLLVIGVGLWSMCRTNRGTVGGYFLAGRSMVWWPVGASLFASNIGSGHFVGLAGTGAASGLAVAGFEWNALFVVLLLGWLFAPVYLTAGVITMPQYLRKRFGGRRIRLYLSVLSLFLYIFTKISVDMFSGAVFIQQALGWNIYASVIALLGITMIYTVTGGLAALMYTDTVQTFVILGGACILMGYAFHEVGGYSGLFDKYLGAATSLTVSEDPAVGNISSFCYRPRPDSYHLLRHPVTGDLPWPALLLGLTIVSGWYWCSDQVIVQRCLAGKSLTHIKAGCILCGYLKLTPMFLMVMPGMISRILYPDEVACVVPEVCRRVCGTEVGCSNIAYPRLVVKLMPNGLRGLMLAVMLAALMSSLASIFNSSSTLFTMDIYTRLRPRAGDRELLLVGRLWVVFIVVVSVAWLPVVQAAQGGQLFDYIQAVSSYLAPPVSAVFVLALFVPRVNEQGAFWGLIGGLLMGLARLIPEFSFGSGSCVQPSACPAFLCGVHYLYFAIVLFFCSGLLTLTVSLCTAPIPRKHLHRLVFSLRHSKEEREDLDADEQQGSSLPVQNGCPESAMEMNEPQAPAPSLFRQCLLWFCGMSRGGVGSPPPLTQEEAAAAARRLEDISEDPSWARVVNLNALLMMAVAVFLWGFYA

[3] = Volume of distribution at steady state in dog at 2 mg/kg, iv; format: ADME, organism-based, Canis lupus familiaris; conditions: in vivo, read-out: Vdss
[4] = Terminal half life in dog at 10 mg/kg administered via oral gavage; format: ADME, organism-based, Canis lupus familiaris; conditions: in vivo, read-out: beta t1/2 (converted)
[5] = AUC (infinity) in dog at 2 mg/kg, iv; format: ADME, organism-based, Canis lupus familiaris; set-up: dose 2 mg/kg, time infinity, route intravenous; conditions: in vivo
[6] = AUC (infinity) in mouse at 20 mg/kg administered via oral gavage; format: ADME, organism-based; set-up: dose 20 mg/kg, route oral, time infinity; conditions: in vivo
[7] = AUC (infinity) in rat at 10 mg/kg administered via oral gavage; format: ADME, organism-based; set-up: dose 10 mg/kg, route oral, time infinity; conditions: in vivo
[8] = AUC (infinity) in monkey at 10 mg/kg administered via oral gavage; format: ADME, organism-based, Macaca mulatta; set-up: dose 10 mg/kg, time infinity, route oral; conditions: rhesus monkey, in vivo
[9] = Terminal half life in dog at 2 mg/kg, iv; format: ADME, organism-based, Canis lupus familiaris; conditions: in vivo, read-out: beta t1/2 (converted)
[10] = Cmax in rat at 2 mg/kg, iv; format: ADME, organism-based; set-up: dose 2 mg/kg, route intravenous; conditions: in vivo
[11] = Oral bioavailability in rat at 10 mg/kg; format: ADME, organism-based; conditions: in vivo
[12] = Terminal half life in mouse at 5 mg/kg, iv; format: ADME, organism-based; conditions: in vivo, read-out: beta t1/2 (converted)
[13] = Cmax in monkey at 2 mg/kg, iv; format: ADME, organism-based, Macaca mulatta; set-up: dose 2 mg/kg, route intravenous; conditions: rhesus monkey, in vivo
[14] = Systemic clearance in dog at 2 mg/kg, iv; format: ADME, organism-based, Canis lupus familiaris; conditions: in vivo
[15] = Cmax in dog at 2 mg/kg, iv; format: ADME, organism-based, Canis lupus familiaris; set-up: dose 2 mg/kg, route intravenous; conditions: in vivo
[16] = Terminal half life in mouse at 20 mg/kg administered via oral gavage; format: ADME, organism-based; conditions: in vivo, read-out: beta t1/2 (converted)
Rattus norvegicus [17] = experiment: Antidiabetic activity in Sprague-Dawley rat assessed as decrease in postprandial blood glucose level administered 1 hr prior to glucose challenge measured up to 120 mins by OGTT; format: functional, organism-based
[18] = Volume of distribution at steady state in mouse at 5 mg/kg, iv; format: ADME, organism-based; conditions: in vivo, read-out: Vdss
[19] = Cmax in mouse at 20 mg/kg administered via oral gavage; format: ADME, organism-based; set-up: dose 20 mg/kg, route oral; conditions: in vivo
[20] = Oral bioavailability in dog at 10 mg/kg; format: ADME, organism-based, Canis lupus familiaris; conditions: in vivo
[21] = AUC (infinity) in mouse at 5 mg/kg, iv; format: ADME, organism-based; set-up: dose 5 mg/kg, time infinity, route intravenous; conditions: in vivo
[22] = Cmax in dog at 10 mg/kg administered via oral gavage; format: ADME, organism-based, Canis lupus familiaris; set-up: dose 10 mg/kg, route oral; conditions: in vivo
[23] = Cmax in rat at 10 mg/kg administered via oral gavage; format: ADME, organism-based; set-up: dose 10 mg/kg, route oral; conditions: in vivo
[24] = Oral bioavailability in mouse at 20 mg/kg; format: ADME, organism-based; conditions: in vivo
[25] = AUC (infinity) in dog at 10 mg/kg administered via oral gavage; format: ADME, organism-based, Canis lupus familiaris; set-up: dose 10 mg/kg, route oral, time infinity; conditions: in vivo
[26] = AUC (infinity) in rat at 2 mg/kg, iv; format: ADME, organism-based; set-up: dose 2 mg/kg, time infinity, route intravenous; conditions: in vivo
Rattus norvegicus [27] = experiment: Antihyperglycemic activity in diabetic ZDF rat assessed as decrease in fed blood glucose levels at 10 mg/kg measured up to 24 hrs; format: functional, organism-based
[28] = Systemic clearance in mouse at 5 mg/kg, iv; format: ADME, organism-based; conditions: in vivo
[29] = Cmax in mouse at 5 mg/kg, iv; format: ADME, organism-based; set-up: dose 5 mg/kg, route intravenous; conditions: in vivo
[30] = AUC (infinity) in monkey at 2 mg/kg, iv; format: ADME, organism-based, Macaca mulatta; set-up: dose 2 mg/kg, route intravenous, time infinity; conditions: rhesus monkey, in vivo
[31] = Cmax in monkey at 10 mg/kg administered via oral gavage; format: ADME, organism-based, Macaca mulatta; set-up: dose 10 mg/kg, route oral; conditions: rhesus monkey, in vivo
[32] = Terminal half life in rat at 10 mg/kg administered via oral gavage; format: ADME, organism-based; conditions: in vivo, read-out: beta t1/2 (converted)
[33] = Volume of distribution at steady state in rat at 2 mg/kg, iv; format: ADME, organism-based; conditions: in vivo, read-out: Vdss
[34] = Systemic clearance in rat at 2 mg/kg, iv; format: ADME, organism-based; conditions: in vivo
[35] = Terminal half life in rat at 2 mg/kg, iv; format: ADME, organism-based; conditions: in vivo, read-out: beta t1/2 (converted)
[36] = Terminal half life in monkey at 2 mg/kg, iv; format: ADME, organism-based, Macaca mulatta; conditions: rhesus monkey, in vivo, read-out: beta t1/2 (converted)
[37] = Oral bioavailability in monkey at 10 mg/kg; format: ADME, organism-based, Macaca mulatta; conditions: rhesus monkey, in vivo
[38] = Volume of distribution at steady state in monkey at 2 mg/kg, iv; format: ADME, organism-based, Macaca mulatta; conditions: rhesus monkey, in vivo, read-out: Vdss
[39] = Terminal half life in monkey at 10 mg/kg administered via oral gavage; format: ADME, organism-based, Macaca mulatta; conditions: rhesus monkey, in vivo, read-out: beta t1/2 (converted)
[40] = Systemic clearance in monkey at 2 mg/kg, iv; format: ADME, organism-based, Macaca mulatta; conditions: rhesus monkey, in vivo
Rattus norvegicus [41] = experiment: Antidiabetic activity in Sprague-Dawley rat assessed as decrease in plasma glucose AUC (0 to 120 mins) administered 1 hr prior to U13C6-glucose challenge by OGTT; format: functional, organism-based
Rattus norvegicus [42] = experiment: Antidiabetic activity in Sprague-Dawley rat assessed as increase in urinary glucose excrection administered 1 hr prior to U13C6-glucose challenge measured up to 4 hrs by OGTT; format: functional, organism-based

SMILES	inhibition [1]	inhibition [2]	AUC(0-inf) [6]	AUC(0-inf) [7]	Cmax [10]	bioavailability [11]	half-life [12]	half-life [16]	Vd [18]	Cmax [19]	AUC(0-inf) [21]	Cmax [23]	bioavailability [24]	AUC(0-inf) [26]	clearance [28]	Cmax [29]	half-life [32]	Vd [33]	clearance [34]	half-life [35]	also measured
OC[C@H]1O[C@@H](c2cccc(Cc3ccc4c(c3)CC4)c2)[C@H](O)[C@@H](O)[C@@H]1O	5%	23%	–	–	–	–	–	–	–	–	–	–	–	–	–	–	–	–	–	–	–
OC[C@H]1O[C@@H](c2ccc(Cl)c(Cc3ccc4c(c3)CC4)c2)[C@H](O)[C@@H](O)[C@@H]1O	–	–	25.5 µg·h/mL	2.65 µg·h/mL	1.11 µg/mL	78%	2.42 h	3.29 h	2.19 L/kg	5.68 µg/mL	6.39 µg·h/mL	0.634 µg/mL	99%	0.697 µg·h/mL	0.78 L/h/kg	5.87 µg/mL	2.48 h	4.01 L/kg	2.9 L/h/kg	2.17 h	Vd [3]: 0.4 L/kg; half-life [4]: 12.8 h; AUC(0-inf) [5]: 50.8 µg·h/mL; AUC(0-inf) [8]: 40.5 µg·h/mL; half-life [9]: 7.93 h; Cmax [13]: 9.11 µg/mL; clearance [14]: 0.0408 L/h/kg; Cmax [15]: 9.6 µg/mL; Activity (Rattus norvegicus [17]): Active; bioavailability [20]: 107%; Cmax [22]: 20.1 µg/mL; AUC(0-inf) [25]: 332 µg·h/mL; Activity (Rattus norvegicus [27]): Active; AUC(0-inf) [30]: 9.21 µg·h/mL; Cmax [31]: 7.18 µg/mL; half-life [36]: 4.71 h; bioavailability [37]: 88%; Vd [38]: 0.91 L/kg; half-life [39]: 4.45 h; clearance [40]: 0.224 L/h/kg
CN(C)c1ccc([C@@H]2O[C@H](CO)[C@@H](O)[C@H](O)[C@H]2O)cc1Cc1ccc2c(c1)CC2	67%	35%	–	–	–	–	–	–	–	–	–	–	–	–	–	–	–	–	–	–	–
Cc1cc(O)c([C@@H]2O[C@H](CO)[C@@H](O)[C@H](O)[C@H]2O)cc1Cc1ccc2c(c1)CC2	–	–	11.5 µg·h/mL	1.79 µg·h/mL	2.11 µg/mL	49%	1.25 h	2.68 h	1.06 L/kg	4.76 µg/mL	4.56 µg·h/mL	0.717 µg/mL	62.8%	0.697 µg·h/mL	1.1 L/h/kg	8.21 µg/mL	2.22 h	2.18 L/kg	2.87 L/h/kg	1.27 h	Activity (Rattus norvegicus [41]): Dose-dependent effect; Activity (Rattus norvegicus [42]): Dose-dependent effect
N#Cc1ccc([C@@H]2O[C@H](CO)[C@@H](O)[C@H](O)[C@H]2O)cc1Cc1ccc2c(c1)CC2	0%	43%	–	–	–	–	–	–	–	–	–	–	–	–	–	–	–	–	–	–	–
COc1cc(C2CC2)c(Cc2ccc3c(c2)CC3)cc1[C@@H]1O[C@H](CO)[C@@H](O)[C@H](O)[C@H]1O	67%	31%	–	–	–	–	–	–	–	–	–	–	–	–	–	–	–	–	–	–	–
